Measurements: the NIST ThermoML archive (doi:10.1016/j.fluid.2006.06.006)
Several values for one entry are separate records, joined by “and”; a condition that tells them apart may be missing. Equal values may be shown once. Numbers after ± are expanded uncertainties.

Test: excess molar enthalpy (molar enthalpy of mixing); xn = mol fraction of the nth substance listed
Settings: Liquid

`O=C=O` [carbon dioxide] + O gave an excess molar enthalpy (323.1 K, 20200 kPa, x1 = 0.0274) of -0.0246 ± 0.00098 kcal/mol, an excess molar enthalpy (323.1 K, 20200 kPa, x1 = 0.0288) of -0.0248 ± 0.00098 kcal/mol and an excess molar enthalpy (323.1 K, 20200 kPa, x1 = 0.0359) of -0.0249 ± 0.00098 kcal/mol. It also gave an excess molar enthalpy (323.1 K, 20200 kPa, x1 = 0.0427) of -0.0252 ± 0.00098 kcal/mol, an excess molar enthalpy (323.1 K, 20200 kPa, x1 = 0.0461) of -0.0249 ± 0.00098 kcal/mol and an excess molar enthalpy (323.1 K, 20200 kPa, x1 = 0.0494) of -0.0251 ± 0.00098 kcal/mol. It also gave an excess molar enthalpy (323.1 K, 20200 kPa, x1 = 0.0692) of -0.0247 ± 0.00098 kcal/mol, an excess molar enthalpy (373.1 K, 5050 kPa, x1 = 0.002) of -0.00308 ± 0.00055 kcal/mol and an excess molar enthalpy (373.1 K, 5050 kPa, x1 = 0.0025) of -0.00418 ± 0.000574 kcal/mol. For the same molecule, the excess molar enthalpy (373.1 K, 5050 kPa, x1 = 0.003) was -0.00476 ± 0.000598 kcal/mol, the excess molar enthalpy (373.1 K, 5050 kPa, x1 = 0.004) was -0.00614 ± 0.000621 kcal/mol and the excess molar enthalpy (373.1 K, 5050 kPa, x1 = 0.0045) was -0.00686 ± 0.000621 kcal/mol. It also gave an excess molar enthalpy (373.1 K, 5050 kPa, x1 = 0.005) of -0.00767 ± 0.000645 kcal/mol, an excess molar enthalpy (373.1 K, 5050 kPa, x1 = 0.006) of -0.00901 ± 0.000669 kcal/mol and an excess molar enthalpy (373.1 K, 5050 kPa, x1 = 0.007) of -0.01 ± 0.000693 kcal/mol. It also gave an excess molar enthalpy (373.1 K, 5050 kPa, x1 = 0.0075) of -0.0109 ± 0.000717 kcal/mol, an excess molar enthalpy (373.1 K, 5050 kPa, x1 = 0.008) of -0.0112 ± 0.000717 kcal/mol and an excess molar enthalpy (373.1 K, 5050 kPa, x1 = 0.009) of -0.0112 ± 0.000717 kcal/mol. The excess molar enthalpy (373.1 K, 5050 kPa, x1 = 0.01) was -0.0113 kcal/mol and -0.011 kcal/mol, the excess molar enthalpy (373.1 K, 5050 kPa, x1 = 0.011) was -0.0113 ± 0.000717 kcal/mol and the excess molar enthalpy (373.1 K, 5050 kPa, x1 = 0.0125) was -0.0109 ± 0.000717 kcal/mol. The excess molar enthalpy (373.1 K, 5050 kPa, x1 = 0.014) was -0.011 ± 0.000717 kcal/mol, the excess molar enthalpy (373.1 K, 5050 kPa, x1 = 0.0149) was -0.0103 ± 0.000693 kcal/mol and the excess molar enthalpy (373.1 K, 5050 kPa, x1 = 0.0154) was -0.0106 ± 0.000693 kcal/mol. For the same molecule, the excess molar enthalpy (373.1 K, 5050 kPa, x1 = 0.0174) was -0.00997 ± 0.000693 kcal/mol, the excess molar enthalpy (373.1 K, 5050 kPa, x1 = 0.0179) was -0.0097 ± 0.000693 kcal/mol and the excess molar enthalpy (373.1 K, 5050 kPa, x1 = 0.0198) was -0.00939 ± 0.000669 kcal/mol. The excess molar enthalpy (373.1 K, 10080 kPa, x1 = 0.0068) was -0.00801 ± 0.000645 kcal/mol, the excess molar enthalpy (373.1 K, 10080 kPa, x1 = 0.0081) was -0.0088 ± 0.000669 kcal/mol and the excess molar enthalpy (373.1 K, 10080 kPa, x1 = 0.0094) was -0.0104 ± 0.000693 kcal/mol. It also gave an excess molar enthalpy (373.1 K, 10080 kPa, x1 = 0.0101) of -0.0114 ± 0.000717 kcal/mol, an excess molar enthalpy (373.1 K, 10080 kPa, x1 = 0.0108) of -0.0122 ± 0.000741 kcal/mol and an excess molar enthalpy (373.1 K, 10080 kPa, x1 = 0.0134) of -0.0147 ± 0.000789 kcal/mol. It also gave an excess molar enthalpy (373.1 K, 10080 kPa, x1 = 0.0135) of -0.0145 ± 0.000789 kcal/mol, an excess molar enthalpy (373.1 K, 10080 kPa, x1 = 0.02) of -0.0151 ± 0.000789 kcal/mol and an excess molar enthalpy (373.1 K, 10080 kPa, x1 = 0.0201) of -0.0148 ± 0.000789 kcal/mol. It also gave an excess molar enthalpy (373.1 K, 10080 kPa, x1 = 0.0228) of -0.0142 ± 0.000765 kcal/mol, an excess molar enthalpy (373.1 K, 10080 kPa, x1 = 0.0263) of -0.0141 ± 0.000765 kcal/mol and an excess molar enthalpy (373.1 K, 10080 kPa, x1 = 0.0265) of -0.0145 ± 0.000765 kcal/mol. The excess molar enthalpy (373.1 K, 10080 kPa, x1 = 0.0294) was -0.0134 ± 0.000765 kcal/mol, the excess molar enthalpy (373.1 K, 10080 kPa, x1 = 0.039) was -0.0134 ± 0.000765 kcal/mol and the excess molar enthalpy (373.1 K, 10080 kPa, x1 = 0.0516) was -0.0122 ± 0.000741 kcal/mol. It also gave an excess molar enthalpy (373.1 K, 19500 kPa, x1 = 0.0037) of -0.0016 ± 0.000526 kcal/mol, an excess molar enthalpy (373.1 K, 19500 kPa, x1 = 0.0044) of -0.00182 ± 0.000526 kcal/mol and an excess molar enthalpy (373.1 K, 19500 kPa, x1 = 0.0051) of -0.00198 ± 0.000526 kcal/mol. It also gave an excess molar enthalpy (373.1 K, 19500 kPa, x1 = 0.0059) of -0.00225 ± 0.000526 kcal/mol, an excess molar enthalpy (373.1 K, 19500 kPa, x1 = 0.0066) of -0.00251 ± 0.00055 kcal/mol and an excess molar enthalpy (373.1 K, 19500 kPa, x1 = 0.0081) of -0.00294 ± 0.00055 kcal/mol. It also gave an excess molar enthalpy (373.1 K, 19500 kPa, x1 = 0.0087) of -0.00335 ± 0.00055 kcal/mol, an excess molar enthalpy (373.1 K, 19500 kPa, x1 = 0.0088) of -0.00327 ± 0.00055 kcal/mol and an excess molar enthalpy (373.1 K, 19500 kPa, x1 = 0.0095) of -0.00337 ± 0.00055 kcal/mol. For the same molecule, the excess molar enthalpy (373.1 K, 19500 kPa, x1 = 0.011) was -0.00411 ± 0.000574 kcal/mol, the excess molar enthalpy (373.1 K, 19500 kPa, x1 = 0.0123) was -0.00454 ± 0.000574 kcal/mol and the excess molar enthalpy (373.1 K, 19500 kPa, x1 = 0.0145) was -0.00464 ± 0.000574 kcal/mol. It also gave an excess molar enthalpy (373.1 K, 19500 kPa, x1 = 0.0146) of -0.00492 ± 0.000598 kcal/mol, an excess molar enthalpy (373.1 K, 19500 kPa, x1 = 0.0159) of -0.00504 ± 0.000598 kcal/mol and an excess molar enthalpy (373.1 K, 19500 kPa, x1 = 0.0167) of -0.00492 ± 0.000598 kcal/mol. For the same molecule, the excess molar enthalpy (373.1 K, 19500 kPa, x1 = 0.0181) was -0.00554 ± 0.000598 kcal/mol, the excess molar enthalpy (373.1 K, 19500 kPa, x1 = 0.0182) was -0.00535 ± 0.000598 kcal/mol and the excess molar enthalpy (373.1 K, 19500 kPa, x1 = 0.0195) was -0.00564 ± 0.000598 kcal/mol. It also gave an excess molar enthalpy (373.1 K, 19500 kPa, x1 = 0.0217) of -0.0054 ± 0.000598 kcal/mol, an excess molar enthalpy (373.1 K, 19500 kPa, x1 = 0.0218) of -0.0054 ± 0.000598 kcal/mol and an excess molar enthalpy (373.1 K, 19500 kPa, x1 = 0.0251) of -0.00531 ± 0.000598 kcal/mol. The excess molar enthalpy (373.1 K, 19500 kPa, x1 = 0.0253) was -0.00538 ± 0.000598 kcal/mol, the excess molar enthalpy (373.1 K, 19500 kPa, x1 = 0.0265) was -0.00526 ± 0.000598 kcal/mol and the excess molar enthalpy (373.1 K, 19500 kPa, x1 = 0.03) was -0.00488 ± 0.000598 kcal/mol. The excess molar enthalpy (373.1 K, 19500 kPa, x1 = 0.0521) was -0.00258 ± 0.00055 kcal/mol, the excess molar enthalpy (373.1 K, 19500 kPa, x1 = 0.0603) was -0.00186 ± 0.000526 kcal/mol and the excess molar enthalpy (373.1 K, 19500 kPa, x1 = 0.0688) was -0.00086 ± 0.000502 kcal/mol. For the same molecule, the excess molar enthalpy (373.1 K, 19500 kPa, x1 = 0.0691) was -0.00129 ± 0.000526 kcal/mol and the excess molar enthalpy (373.1 K, 19500 kPa, x1 = 0.0771) was -0.000478 ± 0.000502 kcal/mol.
